Among the data in ChEMBL document CHEMBL1133823, “Antiviral drug design: computational analyses of the effects of the L100I mutation for HIV-RT on the binding of NNRTIs” (Bioorg Med Chem Lett, 2001) are EC50 and FR values, retold here.

“And” between values parts separate entries of the source, which are not always exact repeats. Identical values can stand only once.

For assay [1], the target named is Human immunodeficiency virus type 1 reverse transcriptase (Human immunodeficiency virus 1, UniProt Q72547). The assay can be described thus: Effective concentration required against wild type HIV-1 reverse transcriptase.
The target of assay [2] is Human immunodeficiency virus type 1 reverse transcriptase (Human immunodeficiency virus 1, UniProt Q72547, L100I). The assay can be described thus: Effective concentration required against L100I mutant HIV-1 reverse transcriptase.
The nature of assay [3]: Fold resistance (L100I/ WT) was determined.
Assay [4] in a line: Fold resistance (L100I/ WT) (as per ref 7 in the article).
Assay [5] can be described thus: Fold resistance (L100I/ WT) (as per ref 12 in the article).
Assay [6] in a line: Fold resistance (L100I/ WT) (as per ref 6 in the article).
Assay [7] can be described thus: Fold resistance (L100I/ WT) (as per ref 8 in the article).
A short description of assay [8]: Fold resistance (L100I/ WT) (as per ref 10 in the article).

As a reminder, the EC50 is the concentration that produces a half-maximal response. With `CCOCn1c(Cc2ccccc2)c(C(C)C)c(=O)[nH]c1=O` [EMIVIRINE], the results for the EC50 in assay [1] and in assay [2] were 0.002 µM and 0.02 µM, respectively. This molecule showed an FR in assay [3] of 10.

For `Cc1ccnc2c1NC(=O)c1cccnc1N2C1CC1`, the FR worked out at 2.1 in assay [4], 5 in assay [5], 0.6 in assay [6] and 12.7 in assay [7].

On to `O=C1Nc2ccc(Cl)cc2[C@@](C#CC2CC2)(C(F)(F)F)O1`, for which the FR in assay [8] is 5.9 and 8.6.

For the molecule `CC(C)=CCOc1cc(NC(=S)c2ccoc2C)ccc1Cl` [UC 781], the EC50 was determined as 0.009 µM in assay [1] and 0.024 µM in assay [2]. The same molecule returned an FR in assay [3] of 2.7.

Turning to `CC(C)=CCN1Cc2cc(Cl)cc3[nH]c(=S)n(c23)C[C@@H]1C`, the results for the concentration giving a half-maximal response (EC50) in assay [1] and in assay [2] were 0.06 µM and 5.6 µM, respectively. The molecule further displayed an FR in assay [3] of 93.3.
